“And” between values parts separate entries of the source, which are not always exact repeats. Equal values may be shown once.
Tests used:
[1] = Molar enthalpy of transition or fusion; conditions: Crystal; DSC
[2] = for vapor or sublimation pressure: Torsion effusion method

O=C(O)c1ccc([N+](=O)[O-])c([N+](=O)[O-])c1 [3,4-dinitrobenzoic acid]
Conditions	Molar enthalpy of transition or fusion [kcal/mol]
[1]	5.88

[2]
Conditions	Normal melting temperature [°C]	vapor or sublimation pressure
366 K, Crystal	–	6e-05 kPa
367 K, Crystal	–	7.5e-05 kPa
368 K, Crystal	–	7.5e-05 kPa
369 K, Crystal	–	9e-05 kPa
370 K, Crystal	–	0.000105 kPa
370.5 K, Crystal	–	0.000105 kPa
373 K, Crystal	–	0.00015 kPa
373.5 K, Crystal	–	0.00015 kPa
374 K, Crystal	–	0.00015 kPa
374.5 K, Crystal	–	0.00015 kPa
376 K, Crystal	–	0.00018 kPa
378 K, Crystal	–	0.00024 kPa
379 K, Crystal	–	0.00027 kPa
380 K, Crystal	–	0.00027 kPa
382 K, Crystal	–	0.00039 kPa and 0.00036 kPa
383 K, Crystal	–	0.00039 kPa
383.5 K, Crystal	–	0.00039 kPa
384.5 K, Crystal	–	0.00048 kPa
385 K, Crystal	–	0.000511 kPa
386.5 K, Crystal	–	0.000541 kPa
387 K, Crystal	–	0.000571 kPa
387.5 K, Crystal	–	0.000631 kPa
390.5 K, Crystal	–	0.000841 kPa
391.5 K, Crystal	–	0.000901 kPa
392 K, Crystal	–	0.000991 kPa
393 K, Crystal	–	0.001171 kPa
393.5 K, Crystal	–	0.001111 kPa
396 K, Crystal	–	0.001502 kPa and 0.001441 kPa
396.5 K, Crystal	–	0.001622 kPa
397 K, Crystal	–	0.001652 kPa
398.5 K, Crystal	–	0.001862 kPa
399.3 K, Crystal	–	0.001952 kPa
504.2 K, Liquid	–	1.398 kPa
506.3 K, Liquid	–	1.467 kPa and 1.527 kPa
508.1 K, Liquid	–	1.661 kPa
509.3 K, Liquid	–	1.686 kPa and 1.713 kPa
510.3 K, Liquid	–	1.855 kPa
511.2 K, Liquid	–	1.855 kPa
512.2 K, Liquid	–	2.062 kPa and 1.928 kPa
512.6 K, Liquid	–	2.021 kPa
513.3 K, Liquid	–	2.078 kPa
514 K, Liquid	–	2.144 kPa
514.2 K, Liquid	–	2.189 kPa
514.5 K, Liquid	–	2.164 kPa
515.2 K, Liquid	–	2.237 kPa
516.3 K, Liquid	–	2.326 kPa and 2.215 kPa
517.3 K, Liquid	–	2.424 kPa
517.4 K, Liquid	–	2.494 kPa
517.5 K, Liquid	–	2.396 kPa
518.2 K, Liquid	–	2.524 kPa and 2.484 kPa
518.3 K, Liquid	–	2.448 kPa
519.1 K, Liquid	–	2.585 kPa
519.3 K, Liquid	–	2.646 kPa
519.5 K, Liquid	–	2.554 kPa
520 K, Liquid	–	2.619 kPa
520.2 K, Liquid	–	2.672 kPa and 2.772 kPa and 2.726 kPa
521.2 K, Liquid	–	2.916 kPa
521.3 K, Liquid	–	2.807 kPa
521.7 K, Liquid	–	2.815 kPa
522.1 K, Liquid	–	2.909 kPa and 2.971 kPa
522.2 K, Liquid	–	2.978 kPa
523.1 K, Liquid	–	3.104 kPa
523.3 K, Liquid	–	3.095 kPa and 3.121 kPa
523.5 K, Liquid	–	3.122 kPa
524.1 K, Liquid	–	3.125 kPa
524.2 K, Liquid	–	3.059 kPa and 3.181 kPa
524.4 K, Liquid	–	3.199 kPa
525 K, Liquid	–	3.353 kPa
525.2 K, Liquid	–	3.39 kPa
525.5 K, Liquid	–	3.335 kPa
526 K, Liquid	–	3.494 kPa
526.3 K, Liquid	–	3.406 kPa and 3.328 kPa and 3.288 kPa
526.5 K, Liquid	–	3.316 kPa
527.1 K, Liquid	–	3.585 kPa
527.3 K, Liquid	–	3.551 kPa and 3.644 kPa
528.1 K, Liquid	–	3.726 kPa and 3.627 kPa
528.2 K, Liquid	–	3.635 kPa
528.3 K, Liquid	–	3.831 kPa
529.2 K, Liquid	–	3.887 kPa
529.4 K, Liquid	–	3.764 kPa
529.6 K, Liquid	–	3.879 kPa and 3.918 kPa
530.1 K, Liquid	–	3.984 kPa
530.3 K, Liquid	–	4.036 kPa and 4.045 kPa
531 K, Liquid	–	4.159 kPa
531.3 K, Liquid	–	4.262 kPa and 4.216 kPa
532.2 K, Liquid	–	4.348 kPa [middle of 4 runs]
533.2 K, Liquid	–	4.481 kPa
533.3 K, Liquid	–	4.576 kPa and 4.47 kPa
534.3 K, Liquid	–	4.611 kPa and 4.532 kPa
535.4 K, Liquid	–	4.812 kPa
535.7 K, Liquid	–	4.867 kPa
536.2 K, Liquid	–	4.889 kPa
536.5 K, Liquid	–	4.992 kPa
537.3 K, Liquid	–	5.217 kPa
538.3 K, Liquid	–	5.356 kPa
539.3 K, Liquid	–	5.685 kPa
540.6 K, Liquid	–	5.862 kPa
Crystal, DTA	165.1	–

Source: the NIST ThermoML archive (doi:10.1016/j.jct.2009.02.008)
